Data taken from publication PMC2670245 (Bioorganic & medicinal chemistry, 2008).
“Also recorded” adds a separate entry of the source.

Experiments:
5-HT3 = conditions: read-out: Ki 5-HT3; cited from earlier work
5-HT4 = conditions: read-out: Ki 5-HT4; cited from earlier work
EMT-6 cells = assay: colony formation; format: cell-based, mouse
MDA-MB435 cells = assay: colony formation; format: cell-based, human
Panc-02 = conditions: cited from earlier work
σ2 receptor = biological target: T1, σ2 receptor (Rattus norvegicus, UniProt Q5U3Y7); assay: σ2 receptor competitive binding with [^3H]RHM-1; conditions: Ki of σ1/σ2 ratio
T1 sequence (Q5U3Y7 1-176): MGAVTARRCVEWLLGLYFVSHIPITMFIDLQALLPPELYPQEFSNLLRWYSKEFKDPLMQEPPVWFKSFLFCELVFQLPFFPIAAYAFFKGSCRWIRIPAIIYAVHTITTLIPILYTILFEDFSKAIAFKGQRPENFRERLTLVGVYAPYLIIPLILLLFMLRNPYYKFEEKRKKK

Structure (SMILES): COc1ccc(C)cc1NC(=O)OC1CC2CCCC(C1)N2Cc1ccccc1 (centres unmarked) [Compound 6, 9-Benzyl-9-azabicyclo[3.3.1]nonan-3-yl-2-methoxy-5-methylphenylcarbamate]
- Ki (5-HT3): > 1000 nM
- Ki (5-HT4): > 1000 nM

Structure (SMILES): COc1cccc2c1C(=O)c1c(O)c3c(c(O)c1C2=O)C[C@@](O)(C(=O)CO)C[C@@H]3O[C@H]1C[C@H](N)[C@H](O)[C@H](C)O1 [DOX, doxorubicin, reference compound]
- tumor cell kill as single agent (EMT-6 cells; EMT-6, DOX <20 μM, 24 h): no tumor cell kill
- tumor cell kill as single agent (MDA-MB435 cells; MDA-MB435, DOX <20 μM, 24 h): no tumor cell kill

Structure (SMILES): COc1ccc(C)cc1NC(=O)OC1CC2CCCC(C1)N2Cc1ccc(N(C)C)cc1 (centres unmarked) [WC-26, 9-(4-(Dimethylamino)benzyl)-9-azabicyclo[3.3.1]nonan-3-yl-2-methoxy-5-methyl-phenylcarbamate]
- clonogenic survival, combination with DOX compared to DOX alone (EMT-6 cells; EMT-6, 2 μM WC-26 16 h, then range of DOX concentrations added for 24 h): large decrease in clonogenic survival
- cell kill as single agent (EMT-6 cells; EMT-6, 2 μM WC-26 alone, 40 h): no measureable cell kill; also recorded: no tumor cell kill
- clonogenic survival, combination with DOX compared to DOX alone (MDA-MB435 cells; MDA-MB435, 2 μM WC-26 16 h, then range of DOX concentrations added for 24 h): large decrease in clonogenic survival
- cell kill as single agent (MDA-MB435 cells; MDA-MB435, 2 μM WC-26 alone, 40 h): no measureable cell kill; also recorded: no tumor cell kill
- apoptosis in treated tumors (Panc-02; flow cytometry): dose-dependent increases in apoptosis
- systemic toxicity (Panc-02; treated mice): no evidence of systemic toxicity

Structure (SMILES): COc1ccc(C)cc1NC(=O)OC1CC2CCCC(C1)N2Cc1ccc(CCF)cc1 (centres unmarked) [WC-59, 9-(4-(2-Fluoroethyl)benzyl)-9-azabicyclo[3.3.1]nonan-3-yl-2-methoxy-5-methyl-phenylcarbamate]
- σ1/σ2 (Ki ratio) (σ2 receptor): 2,087
